{"source": "patent US4857652A", "about": "“Chemiluminescent 1,2-dioxetane compounds” (priority 1988, dated 1989)", "key": {"[1]": {"details": "25° C.; cited from earlier work"}, "[2]": {"test_system": "alkaline phosphatase, Type VII-S from Bovine Intestinal Mucosa", "test": "Enzymatic triggering of chemiluminescence with alkaline phosphatase (bovine)", "type": "biochemical", "details": "2-amino-2-methyl-1-propanol buffer pH 10.3, 37° C., 10 μL enzyme suspension", "method": "A cuvette containing 3 mL of a buffer solution of 2-amino-2-methyl-1-propanol (Sigma Chemical Co., pH=10.3, 1.5M) was placed in the black box at 37° C. A portion (200 μL) of the dioxetane stock solution (6d in CH2 Cl2) was added to this buffer solution. Subsequent addition of 10 μL of an alkaline phosphatase suspension [Sigma, Type VII-S from Bovine Intestinal Mucosa, suspension in 3.2M (NH4)2 SO4 ] gave rise to chemiluminescence over a period of approximately 2-3 min indicating the enzymatic triggering of the dioxetane."}}, "data": [{"compound": "Oc1ccc(C23OCCOC2(c2ccccc2)OO3)cc1", "note": "(centres unmarked) [deprotonated dioxetane (X=O^-)]", "values": [{"measurement": "rate of decomposition relative to protonated form (X=OH)", "setting": "[1]", "result": "5.7×10^6 times"}]}, {"compound": "O=P(O)(O)Oc1ccc2c(c1)Oc1ccccc1C21OOC12C1CC3CC(C1)CC2C3", "note": "(centres unmarked) [Dioxetane 6d, Dispiro[adamantane-2,3'-[1,2]dioxetane-4',9\"-(3-phosphate-9H-xanthene]]", "values": [{"measurement": "period of chemiluminescence", "setting": "[2]", "result": "2 to 3", "unit": "min"}]}]}
